# Data: PubChem BioAssay AID2060506 (Molecular Pharmacology Branch, DTP, NCI, 2025)
# System: 598228-144-R-J1-PDC complex spheroid viability
# Assay: Anticancer human tumor 598228-144-R-J1-PDC patient-derived serous endometrial adenocarcinoma cell line growth inhibition [GQUAD]
# Conditions: for IC50: curve of first compound; for viability, T/C: stronger effect = lower value
# Procedure, shortened: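 Multi-cell-type spheroids of tumor cells with HUVEC and mesenchymal stem cells, treated with drug combinations. Concentrations descend in half-log steps from near clinical Cmax, or from 10 microM where Cmax is unknown; viability read-out.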
# [1] = second compound 0.0316 µM, first compound 0.000999 µM
# [2] = second compound 0.0316 µM, first compound 0.00316 µM
# [3] = second compound 0.0316 µM, first compound 0.00999 µM
# [4] = second compound 0.0316 µM, first compound 0.0316 µM
# [5] = second compound 0.0316 µM, first compound 0.0999 µM
# [6] = second compound 0.0316 µM, first compound 0.316 µM
# [7] = second compound 0.1 µM, first compound 0.000999 µM
# [8] = second compound 0.1 µM, first compound 0.00316 µM
# [9] = second compound 0.1 µM, first compound 0.00999 µM
# [10] = second compound 0.1 µM, first compound 0.0316 µM
# [11] = second compound 0.1 µM, first compound 0.0999 µM
# [12] = second compound 0.1 µM, first compound 0.316 µM
# [13] = second compound 0.316 µM, first compound 0.000999 µM
# [14] = second compound 0.316 µM, first compound 0.00316 µM
# [15] = second compound 0.316 µM, first compound 0.00999 µM
# [16] = second compound 0.316 µM, first compound 0.0316 µM
# [17] = second compound 0.316 µM, first compound 0.0999 µM
# [18] = second compound 0.316 µM, first compound 0.316 µM
# [19] = second compound 1 µM, first compound 0.000999 µM
# [20] = second compound 1 µM, first compound 0.00316 µM
# [21] = second compound 1 µM, first compound 0.00999 µM
# [22] = second compound 1 µM, first compound 0.0316 µM
# [23] = second compound 1 µM, first compound 0.0999 µM
# [24] = second compound 1 µM, first compound 0.316 µM
# [25] = second compound 3.16 µM, first compound 0.000999 µM
# [26] = second compound 3.16 µM, first compound 0.00316 µM
# [27] = second compound 3.16 µM, first compound 0.00999 µM
# [28] = second compound 3.16 µM, first compound 0.0316 µM
# [29] = second compound 3.16 µM, first compound 0.0999 µM
# [30] = second compound 3.16 µM, first compound 0.316 µM
# [31] = second compound 10 µM, first compound 0.000999 µM
# [32] = second compound 10 µM, first compound 0.00316 µM
# [33] = second compound 10 µM, first compound 0.00999 µM
# [34] = second compound 10 µM, first compound 0.0316 µM
# [35] = second compound 10 µM, first compound 0.0999 µM
# [36] = second compound 10 µM, first compound 0.316 µM
# 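Further: spheroids exposed to the agents for one week before reading.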
# 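Wherever viability, T/C is given: percent of vehicle DMSO control viability so 100% = untreated growth.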
smiles,measurement,setting,value
Cc1[nH]c2ccccc2c1CCNCc1ccc(/C=C/C(=O)NO)cc1 + Cc1[nH]c2ccc(F)cc2c1-c1nc2c3cccnc3c3ncccc3c2[nH]1,IC50,second compound 0.0316 µM,62.9 nM
same,IC50,second compound 0.1 µM,63 nM
same,IC50,second compound 0.316 µM,58 nM
same,IC50,second compound 1 µM,23.9 nM
same,IC50,second compound 3.16 µM,< 0.999 nM
same,IC50,second compound 10 µM,39.1 nM
same,"viability, T/C",[1],110%
same,"viability, T/C",[2],115%
same,"viability, T/C",[3],131%
same,"viability, T/C",[4],82.5%
same,"viability, T/C",[5],28%
same,"viability, T/C",[6],0.83%
same,"viability, T/C",[7],111%
same,"viability, T/C",[8],108%
same,"viability, T/C",[9],103%
same,"viability, T/C",[10],77.8%
same,"viability, T/C",[11],31.4%
same,"viability, T/C",[12],1.46%
same,"viability, T/C",[13],107%
same,"viability, T/C",[14],108%
same,"viability, T/C",[15],90.2%
same,"viability, T/C",[16],73.5%
same,"viability, T/C",[17],30.1%
same,"viability, T/C",[18],0.7%
same,"viability, T/C",[19],71.8%
same,"viability, T/C",[20],58%
same,"viability, T/C",[21],62.6%
same,"viability, T/C",[22],47.1%
same,"viability, T/C",[23],22.4%
same,"viability, T/C",[24],0.79%
same,"viability, T/C",[25],32.2%
same,"viability, T/C",[26],32.8%
same,"viability, T/C",[27],41.1%
same,"viability, T/C",[28],32.7%
same,"viability, T/C",[29],25.1%
same,"viability, T/C",[30],0.97%
same,"viability, T/C",[31],84.1%
same,"viability, T/C",[32],64.8%
same,"viability, T/C",[33],79.1%
same,"viability, T/C",[34],48.3%
same,"viability, T/C",[35],33.6%
same,"viability, T/C",[36],0.53%
CC[C@@]1(O)C(=O)OCc2c1cc1n(c2=O)Cc2cc3c(CN(C)C)c(O)ccc3nc2-1 + Cc1cnc(CNC(=O)c2c(=O)c3ccc(N4CCCN(C)CC4)nc3n3c2sc2ccccc23)cn1,IC50,second compound 0.0316 µM,> 316 nM
same,IC50,second compound 0.1 µM,> 316 nM
same,IC50,second compound 0.316 µM,> 316 nM
same,IC50,second compound 1 µM,> 316 nM
same,IC50,second compound 3.16 µM,> 316 nM
same,IC50,second compound 10 µM,< 0.999 nM
same,"viability, T/C",[1],83.8%
same,"viability, T/C",[2],107%
same,"viability, T/C",[3],93.2%
same,"viability, T/C",[4],81.6%
same,"viability, T/C",[5],54.8%
same,"viability, T/C",[6],53.9%
same,"viability, T/C",[7],85.1%
same,"viability, T/C",[8],80.2%
same,"viability, T/C",[9],65.5%
same,"viability, T/C",[10],68.7%
same,"viability, T/C",[11],64.2%
same,"viability, T/C",[12],63.6%
same,"viability, T/C",[13],69.2%
same,"viability, T/C",[14],67.9%
same,"viability, T/C",[15],68.8%
same,"viability, T/C",[16],78.2%
same,"viability, T/C",[17],73.1%
same,"viability, T/C",[18],76.6%
same,"viability, T/C",[19],71%
same,"viability, T/C",[20],72.9%
same,"viability, T/C",[21],71.1%
same,"viability, T/C",[22],68.3%
same,"viability, T/C",[23],75.7%
same,"viability, T/C",[24],58%
same,"viability, T/C",[25],67.4%
same,"viability, T/C",[26],58.6%
same,"viability, T/C",[27],58.7%
same,"viability, T/C",[28],52%
same,"viability, T/C",[29],65.6%
same,"viability, T/C",[30],59.4%
same,"viability, T/C",[31],42.5%
same,"viability, T/C",[32],41.2%
same,"viability, T/C",[33],47.7%
same,"viability, T/C",[34],52.3%
same,"viability, T/C",[35],36%
same,"viability, T/C",[36],40.9%
